The source of these data is patent US12344600B2, “c-Myc mRNA translation modulators and uses thereof in the treatment of cancer” (Anima Biotech Inc., priority 2022, dated 2025).

The structures appear in SMILES notation.

This assay relates to c-Myc. Nature of the assay: c-Myc immunofluorescence assay. The class given is cell-based, human. Particulars: A549 cells, 24 hours, anti-c-Myc immunofluorescence. The method in brief: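 A549 NSCLC cells grown 48 h, then treated 24 h with increasing compound concentrations; fixed in 4% paraformaldehyde, stained with anti-c-Myc antibody plus fluorescent secondary and DAPI. Per-cell c-Myc fluorescence quantified by high-content imaging at 20×; dose-response fitted by logistic regression to give EC50.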

On to `COc1ccc(-c2noc(N3CCC(C(=O)NCC4CCN(Cc5ccns5)C4)CC3)n2)cc1` (stereo not drawn) [Compound 352, N-((1-(isothiazol-5-ylmethyl)pyrrolidin-3-yl)methyl)-1-(3-(4-methoxyphenyl)-1,2,4-oxadiazol-5-yl)piperidine-4-carboxamide], for which the “Myc Efficacy (−LogEC50)” value was “++ (++ ≥5 and <6)”.

As to `COc1ccc(-c2noc(N3CCC(C(=O)NC4(Cc5ccccc5)COC4)CC3)n2)cc1` [Compound 277, N-(3-benzyloxetan-3-yl)-1-(3-(4-methoxyphenyl)-1,2,4-oxadiazol-5-yl)piperidine-4-carboxamide], the “Myc Efficacy (−LogEC50)” value is “+ (+ >3 and <5)”.

For the molecule `COc1ccc(-c2cc(N3CCC(C(=O)NCc4cccnc4)CC3)on2)cc1` [Compound 181, 1-(3-(4-methoxyphenyl)isoxazol-5-yl)-N-(pyridin-3-ylmethyl)piperidine-4-carboxamide], the “Myc Efficacy (−LogEC50)” value is “+ (+ >3 and <5)”.

For `COc1ccc(-c2noc(N3CCC(C(=O)NCCc4c[nH]c5cc(C)ccc45)CC3)n2)cc1` [Compound 317, 1-(3-(4-methoxyphenyl)-1,2,4-oxadiazol-5-yl)-N-(2-(6-methyl-1H-indol-3-yl)ethyl)piperidine-4-carboxamide], the “Myc Efficacy (−LogEC50)” value is “++ (++ ≥5 and <6)”.

As for `Cc1ccc(CN2CCC(CNC(=O)C3CCN(c4nc(-c5cccc(C)c5)no4)CC3)C2)cc1` (stereo not drawn) [Compound 186, N-((1-(4-methylbenzyl)pyrrolidin-3-yl)methyl)-1-(3-(m-tolyl)-1,2,4-oxadiazol-5-yl)piperidine-4-carboxamide], the “Myc Efficacy (−LogEC50)” value was “++ (++ ≥5 and <6)”.

In the case of `CN1CCC[C@H](CN2CC[C@H](CNC(=O)C3CCN(c4nc(-c5ccc(Cl)cc5)no4)CC3)C2)C1` (single isomer, unassigned) [Compound 471], the “Myc Efficacy (−LogEC50)” value is “++ (++ ≥5 and <6)”.

In the case of `COc1ccc(-c2cc(N3CCC(C(=O)N4CCOCC4)CC3)on2)cc1` [Compound 183, (1-(3-(4-methoxyphenyl)isoxazol-5-yl)piperidin-4-yl)(morpholino)methanone], the “Myc Efficacy (−LogEC50)” value was “+ (+ >3 and <5)”.

Turning to `COc1ccc(-c2noc(N3CCC(C(=O)NCC4CCN(CCO)C4)CC3)n2)cc1` (stereo not drawn) [Compound 362, N-((1-(2-hydroxyethyl)pyrrolidin-3-yl)methyl)-1-(3-(4-methoxyphenyl)-1,2,4-oxadiazol-5-yl)piperidine-4-carboxamide], the “Myc Efficacy (−LogEC50)” value is “+ (+ >3 and <5)”.

With `O=C(NCc1cccnc1)C1CCN(c2nc(-c3ccc(Cl)cc3)no2)CC1` [Compound 163, 1-(3-(4-chlorophenyl)-1,2,4-oxadiazol-5-yl)-N-(pyridin-3-ylmethyl)piperidine-4-carboxamide], the “Myc Efficacy (−LogEC50)” value is “+ (+ >3 and <5)”.

Consider `COc1ccc(-c2noc(N3CCC(C(=O)NCC4CCN(Cc5ccc(C)cc5)C4)CC3)n2)c(Cl)c1` (stereo not drawn) [Compound 231, 1-(3-(2-chloro-4-methoxyphenyl)-1,2,4-oxadiazol-5-yl)-N-((1-(4-methylbenzyl)pyrrolidin-3-yl)methyl)piperidine-4-carboxamide], for which the “Myc Efficacy (−LogEC50)” value is “++ (++ ≥5 and <6)”.

In the case of `O=C(NCCCN1CCC(Cc2ccccn2)CC1)N1CCN(c2nc(-c3ccc(Cl)cc3)no2)CC1` [Compound 458, 4-(3-(4-chlorophenyl)-1,2,4-oxadiazol-5-yl)-N-(3-(4-(pyridin-2-ylmethyl)piperidin-1-yl)propyl)piperazine-1-carboxamide], the “Myc Efficacy (−LogEC50)” value was “+++ (+++ ≥6)”.

In the case of `CN1CCC[C@H](CN2CCC(CNC(=O)C3CCN(c4nc(-c5ccc(C#N)cc5)no4)CC3)C2)C1` (stereo partly drawn) [Compound 467, 1-(3-(4-cyanophenyl)-1,2,4-oxadiazol-5-yl)-N-((1-(((S)-1-methylpiperidin-3-yl)methyl)pyrrolidin-3-yl)methyl)piperidine-4-carboxamide], the “Myc Efficacy (−LogEC50)” value is “+ (+ >3 and <5)”.

With `COc1ccc(-c2noc(N3CCC(C(=O)Nc4cc(Cl)c(Cl)cn4)CC3)n2)cc1` [Compound 319, N-(4,5-dichloropyridin-2-yl)-1-(3-(4-methoxyphenyl)-1,2,4-oxadiazol-5-yl)piperidine-4-carboxamide], the “Myc Efficacy (−LogEC50)” value is “+ (+ >3 and <5)”.

Consider `COc1ccc(-c2noc(N3CCC(C(=O)NCc4ccc(OC)c(C(F)(F)F)c4)CC3)n2)cc1` [Compound 308, N-(4-methoxy-3-(trifluoromethyl)benzyl)-1-(3-(4-methoxyphenyl)-1,2,4-oxadiazol-5-yl)piperidine-4-carboxamide], for which the “Myc Efficacy (−LogEC50)” value is “+ (+ >3 and <5)”.

On to `COc1ccc(-c2noc(N3CCC(C(=O)NCC4CCN(C5CCOC5)C4)CC3)n2)cc1` (stereo not drawn) [Compound 370, 1-(3-(4-methoxyphenyl)-1,2,4-oxadiazol-5-yl)-N-((1-(tetrahydrofuran-3-yl)pyrrolidin-3-yl)methyl)piperidine-4-carboxamide], for which the “Myc Efficacy (−LogEC50)” value is “+ (+ >3 and <5)”.

In the case of `COc1ccc(-c2noc(N3CCN(C(=O)N4CCC(C)CC4)CC3)n2)cc1` [Compound 145, (4-(3-(4-methoxyphenyl)-1,2,4-oxadiazol-5-yl)piperazin-1-yl)(4-methylpiperidin-1-yl)methanone], the “Myc Efficacy (−LogEC50)” value was “+ (+ >3 and <5)”.

Regarding `C#Cc1ccc(CN2CCC(CNC(=O)C3CCN(c4nc(-c5ccc(OC)cc5)no4)CC3)C2)cc1` (stereo not drawn) [Compound 378, N-((1-(4-ethynylbenzyl)pyrrolidin-3-yl)methyl)-1-(3-(4-methoxyphenyl)-1,2,4-oxadiazol-5-yl)piperidine-4-carboxamide], the “Myc Efficacy (−LogEC50)” value is “++ (++ ≥5 and <6)”.

With `COc1ccc(-c2noc(N3CCC(C(=O)NCc4cccc(OC)c4)CC3)n2)cc1` [Compound 121, N-(3-methoxybenzyl)-1-(3-(4-methoxyphenyl)-1,2,4-oxadiazol-5-yl)piperidine-4-carboxamide], the “Myc Efficacy (−LogEC50)” value is “+ (+ >3 and <5)”.

As for `COc1ccc(-c2noc(N3CCC(C(=O)NCC4CCN(CC5(C)COC5)C4)CC3)n2)cc1` (stereo not drawn) [Compound 371, 1-(3-(4-methoxyphenyl)-1,2,4-oxadiazol-5-yl)-N-((1-((3-methyloxetan-3-yl)methyl)pyrrolidin-3-yl)methyl)piperidine-4-carboxamide], the “Myc Efficacy (−LogEC50)” value is “+ (+ >3 and <5)”.

In the case of `COc1ccc(-c2noc(CCC(=O)NCCCN3CCC(Cc4ccccc4)CC3)n2)cc1` [Compound 151, N-(3-(4-benzylpiperidin-1-yl)propyl)-3-(3-(4-methoxyphenyl)-1,2,4-oxadiazol-5-yl)propanamide], the “Myc Efficacy (−LogEC50)” value was “++ (++ ≥5 and <6)”.

Take `C#CCCC1(CCN2CCC(CNC(=O)C3CCN(c4nc(-c5ccc(OC)cc5)no4)CC3)C2)N=N1` (stereo not drawn) [Compound 286, N-((1-(2-(3-(but-3-yn-1-yl)-3H-diazirin-3-yl)ethyl)pyrrolidin-3-yl)methyl)-1-(3-(4-methoxyphenyl)-1,2,4-oxadiazol-5-yl)piperidine-4-carboxamide]: the “Myc Efficacy (−LogEC50)” value was “++ (++ ≥5 and <6)”.

With `COc1ccc(-c2noc(N3CCC(C(=O)NCC4CCN(Cc5cncs5)C4)CC3)n2)cc1` (stereo not drawn) [Compound 341, 1-(3-(4-methoxyphenyl)-1,2,4-oxadiazol-5-yl)-N-((1-(thiazol-5-ylmethyl)pyrrolidin-3-yl)methyl)piperidine-4-carboxamide], the “Myc Efficacy (−LogEC50)” value is “+ (+ >3 and <5)”.

Consider `COc1ccc(-c2noc(N3CCC(C(=O)Nc4ccc(Cl)cc4)CC3)n2)cc1` [Compound 192, N-(4-chlorophenyl)-1-(3-(4-methoxyphenyl)-1,2,4-oxadiazol-5-yl)piperidine-4-carboxamide], for which the “Myc Efficacy (−LogEC50)” value is “+ (+ >3 and <5)”.

As to `COc1ccc(-c2noc(N3CCC(C(=O)NCCc4cccc(C(F)(F)F)n4)CC3)n2)cc1` [Compound 309, 1-(3-(4-methoxyphenyl)-1,2,4-oxadiazol-5-yl)-N-(2-(6-(trifluoromethyl)pyridin-2-yl)ethyl)piperidine-4-carboxamide], the “Myc Efficacy (−LogEC50)” value is recorded as “− (− ≤3)”.

Consider `COc1ccc(-c2noc(N3CCC(C(=O)NCCOc4ccccc4)CC3)n2)cc1` [Compound 282, 1-(3-(4-methoxyphenyl)-1,2,4-oxadiazol-5-yl)-N-(2-phenoxyethyl)piperidine-4-carboxamide], for which the “Myc Efficacy (−LogEC50)” value was “+ (+ >3 and <5)”.

For `CN1CCC[C@@H](CN2CC[C@H](CNC(=O)C3CCN(c4nc(-c5ccc(Cl)cc5)no4)CC3)C2)C1` [Compound 475, 1-(3-(4-chlorophenyl)-1,2,4-oxadiazol-5-yl)-N-(((R)-1-(((R)-1-methylpiperidin-3-yl)methyl)pyrrolidin-3-yl)methyl)piperidine-4-carboxamide], the “Myc Efficacy (−LogEC50)” value is “++ (++ ≥5 and <6)”.

Regarding `COc1ccc(-c2noc(N3CCC(C(=O)NCC4CCN(C(=O)c5ccc(C)cn5)C4)CC3)n2)cc1` (stereo not drawn) [Compound 242, 1-(3-(4-methoxyphenyl)-1,2,4-oxadiazol-5-yl)-N-((1-(5-methylpicolinoyl)pyrrolidin-3-yl)methyl)piperidine-4-carboxamide], the “Myc Efficacy (−LogEC50)” value is “+ (+ >3 and <5)”.

`COc1ccc(-c2noc(N3CCC(C(=O)NCC4CCN(Cc5ccccc5F)C4)CC3)n2)cc1` (stereo not drawn) [Compound 358, N-((1-(2-fluorobenzyl)pyrrolidin-3-yl)methyl)-1-(3-(4-methoxyphenyl)-1,2,4-oxadiazol-5-yl)piperidine-4-carboxamide]: the “Myc Efficacy (−LogEC50)” value is “++ (++ ≥5 and <6)”.

As for `COc1ccc(-c2noc(N3CCC(C(=O)NCC4CCN(Cc5ccc[nH]5)C4)CC3)n2)cc1` (stereo not drawn) [Compound 389, N-((1-((1H-pyrrol-2-yl)methyl)pyrrolidin-3-yl)methyl)-1-(3-(4-methoxyphenyl)-1,2,4-oxadiazol-5-yl)piperidine-4-carboxamide], the “Myc Efficacy (−LogEC50)” value is “++ (++ ≥5 and <6)”.

Regarding `COc1ccc(-c2noc(N3CCC(C(=O)NC[C@@H]4CCN(CC5CCN(C)CC5)C4)CC3)n2)cc1` [Compound 434, (S)-1-(3-(4-methoxyphenyl)-1,2,4-oxadiazol-5-yl)-N-((1-((1-methylpiperidin-4-yl)methyl)pyrrolidin-3-yl)methyl)piperidine-4-carboxamide], the “Myc Efficacy (−LogEC50)” value is “+ (+ >3 and <5)”.
